In US6352996B1, “Liposomal prodrugs comprising derivatives of camptothecin and methods of treating cancer using these prodrugs” (priority 1999, dated 2002):
Read-outs that look alike come from different tables or passages of the source.

Legend:
[1] = mouse liver homogenate, 2 μg SF6A/ml, 37° C.
Description: Determination of SF6A (Prodrug 2) and CPT in liver homogenate.
Mouse liver was homogenized in 4 volumes of ice-cold 0.15 M KCl with the aid of a Dounce homogenizer, then centrifuged at 15000 G for 10 min to remove particulate material. The supernatant, designated as liver homogenate, was transferred into a capped polypropylene tube, mixed with 2 μg SF6A/ml and incubated in a 37° C. water-bath. At the desired times, samples were removed and mixed with 4 volumes of ice-cold ethanol to precipitate proteins. The samples were stored at −20° C. until all were collected. Following centrifugation at 15000 G for 10 min, the clarified supernatants were subjected to analysis for determination of SF6A and CPT lactones by high pressure liquid chromatography (HPLC). The compounds were detected by fluorescence spectroscopy setting the excitation and emission wavelengths at 347 nm and 418 nm, respectively. CPT and SF6A have characteristic retention times of 3.5 min and 13.5 min, respectively.

[2] = Changes of body weights of mice during the test time period (toxicity); format: in vivo; settings: nude mice
Excerpt: The preferred derivatives display significant antitumor activity with much lower toxicity than their parent camptothecin, CPT. The animal experimental data for these new derivatives were collected. Camptothecin 20(S) propioniate (where R1 is ethyl and R2 is H) is designated as Prodrug 2 and taken as a example to disclose some in vivo experimental data. FIG. 6 represents the antitumor activity of this compound in different doses against the implanted human breast carcinoma (CLO) in nude mice. The change of body weight of mice is recorded with the time.

[3] = Stability of lactone form in human plasma; format: in vitro ADME; settings: for Percent in plasma (lactone, percent of the initial lactone amount added): 1 μg/ml
Description: CPT or SF6A lactone was added to human plasma (1 μg/ml) and an incubation and lactone determination were made as described in Example 15. The lactone amount at each time-point was detected after removing the carboxylate form, and subsequently was calculated as percent of the initial lactone amount added. The results shown in this Table below were derived from one of the three independent experiments performed using different incubation times. The pattern of quantitation of the lactones was similar in all three experiments.

[4] = Closed lactone form in human plasma after oral administration; settings: for % present as closed lactone form in human blood/plasma: after oral administration (FIGS. 2, 4, 5, 7, 8)
[5] = test system: human tumor xenografts
[6] = test system: U-937 cells; assay: Growth inhibition of U-937 cells treated with CPT esters; format: cell-based; settings: 0.2 μM, 120 hr, percent of exponential growth of untreated cells (100%), mean of four estimates
Description: Growth inhibition of U-937 cells treated with various CPT esters.
Each identified compound was added to reach a culture of U-937 cell having a final concentration of 0.2 μM. The treatment time was for 120 hr. Growth inhibition in each of the treated cultures was then estimated as a percent of the exponential growth of the cells that was considered 100%. Each estimate was the mean value of four estimates.

[7] = test system: CLO breast carcinoma; assay: Human breast carcinoma CLO xenograft in nude mice; format: in vivo; settings: 8 mg/kg intramuscular twice a week, day 55 (FIG. 16)
Excerpt: Swiss nude mice of the NIH high fertility strain were bred and maintained pathogen-free in a laboratory. (Giovanella, B. C. and Stehlin, J. S. “Heterotransplantation of human malignant tumors in ‘nude’ thymusless mice. I. Breeding and maintenance of ‘nude’ mice.” J. Natl. Cancer Inst. 51: 615-619; 1973.)
Human malignant carcinomas of the colon, breast, lung, ovary, stomach, pancreas, bladder, prostate, osteosarcoma and malignant melanomas were heterotransplanted directly from patients into the nude mice and passaged serially. In particular, the tumors CLO, MUR, CAS, SW 48, SQU and BRO as described in Giovanella, B. C., Stehlin, J. S., Shepard, R. C. and Williams, L. J. “Correlation between response to chemotherapy of human tumors in patients and in nude mice.” Cancer 52: 1146-1152; 1983, tumor SCH as described in Heim, S., Mandahl, N., Arheden, K., Giovanella, B. C., Yim, S. O., Stehlin, J. S., Jr. and Mitebman, F. “Multiple karyotypic abnormalities including structural rearrangements of 11P in cell lines from malignant melanomas.” Cancer Genet. Cytogent, 35:5-20; 1988, and Verschraegen, C., Ciovanella, B. C., Mendoza, J. T., Kozielski, A. J. and Stehlin, J. S., Jr. “Specific organ metastases of human melanoma cells injected into the arterial circulation of nude mice.” Anticancer Res., In Press, and tumor PC-3 as described in Invest. Urol. 17, 16-23, 1979, were used. […]

[8] = test system: human tumor xenografts; settings: in mice; cited from earlier work
[9] = test system: human malignancies; assay: Clinical responses in Phase I clinical trial patients; format: in vivo; settings: in humans
[10] = Closed lactone form in plasma of mice after intrastomach administration; format: in vivo; settings: after i.s. administration, mouse (FIG. 3)

CCC(=O)O[C@]1(CC)C(=O)OCc2c1cc1n(c2=O)Cc2cc3ccccc3nc2-1 [Prodrug 2, Camptothecin 20-O-propionate]
Amount determined: CPT (formed from SF6A) ([1]; incubation 0 min): 0.00 µg/mL | Amount determined: SF6A ([1]; incubation 0 min): 1.95 µg/mL | Amount determined: CPT (formed from SF6A) ([1]; incubation 10 min): 0.00 µg/mL | Amount determined: SF6A ([1]; incubation 10 min): 2.06 µg/mL | Amount determined: CPT (formed from SF6A) ([1]; incubation 60 min): 0.00 µg/mL | Amount determined: SF6A ([1]; incubation 60 min): 2.05 µg/mL | Amount determined: CPT (formed from SF6A) ([1]; incubation 6 hr): 0.00 µg/mL | Amount determined: SF6A ([1]; incubation 6 hr): 2.05 µg/mL | Amount determined: CPT (formed from SF6A) ([1]; incubation 24 hr): 0.47 µg/mL | Amount determined: SF6A ([1]; incubation 24 hr): 0.96 µg/mL | Amount determined: CPT (formed from SF6A) ([1]; incubation 48 hr): 0.30 µg/mL | Amount determined: SF6A ([1]; incubation 48 hr): 0.90 µg/mL | Body weight ([2]; dose 5 mg/kg, day 21): 21/33 gms | Body weight ([2]; dose 5 mg/kg, day 27): 27/33.7 gms | Body weight ([2]; dose 5 mg/kg, day 34): 34/34.3 gms | Body weight ([2]; dose 5 mg/kg, day 41): 41/33.5 gms | Body weight ([2]; dose 5 mg/kg, day 48): 48/32.9 gms | Body weight ([2]; dose 5 mg/kg, day 56): 56/33.2 gms | Body weight ([2]; dose 6 mg/kg, day 21): 21/32.9 gms | Body weight ([2]; dose 6 mg/kg, day 27): 27/33.4 gms | Body weight ([2]; dose 6 mg/kg, day 34): 34/33.8 gms | Body weight ([2]; dose 6 mg/kg, day 41): 41/33.5 gms | Body weight ([2]; dose 6 mg/kg, day 48): 48/34.0 gms | Body weight ([2]; dose 6 mg/kg, day 56): 56/32.2 gms | Body weight ([2]; dose 7 mg/kg, day 21): 21/30.8 gms | Body weight ([2]; dose 7 mg/kg, day 27): 27/31.7 gms | Body weight ([2]; dose 7 mg/kg, day 34): 34/30.6 gms | Body weight ([2]; dose 7 mg/kg, day 41): 41/31.1 gms | Body weight ([2]; dose 7 mg/kg, day 48): 48/31.6 gms | Body weight ([2]; dose 7 mg/kg, day 56): 56/31.5 gms | Body weight ([2]; dose 8 mg/kg, day 21): 21/32.9 gms | Body weight ([2]; dose 8 mg/kg, day 27): 27/34.1 gms | Body weight ([2]; dose 8 mg/kg, day 34): 34/34.0 gms | Body weight ([2]; dose 8 mg/kg, day 41): 41/33.4 gms | Body weight ([2]; dose 8 mg/kg, day 48): 48/33.9 gms | Body weight ([2]; dose 8 mg/kg, day 56): 56/33.2 gms | change of body weight of mice during the test time period ([2]; doses 5-8 mg/kg): no losses of mice body weights | Lactone % in Human Plasma ([3]; Time 0 Hr): 100% | Lactone % in Human Plasma ([3]; Time 1 Hr): 86% | Lactone % in Human Plasma ([3]; Time 2 Hr): 77% | Lactone % in Human Plasma ([3]; Time 4 Hr): 68% | Lactone % in Human Plasma ([3]; Time 6 Hr): 56% | time the lactone ring remained intact, versus CPT ([3]; human plasma): much longer | Percent in plasma (lactone, percent of the initial lactone amount added) ([3]; human plasma, incubation time 0.0 hr): 100.0% | Percent in plasma (lactone, percent of the initial lactone amount added) ([3]; human plasma, incubation time 1.0 hr): 86.0% | Percent in plasma (lactone, percent of the initial lactone amount added) ([3]; human plasma, incubation time 2.0 hr): 77.0% | Percent in plasma (lactone, percent of the initial lactone amount added) ([3]; human plasma, incubation time 4.0 hr): 68.0% | Percent in plasma (lactone, percent of the initial lactone amount added) ([3]; human plasma, incubation time 6.0 hr): 56.0% | Percent in plasma (lactone, percent of the initial lactone amount added) ([3]; human plasma, incubation time 27.0 hr): 9.0% | % present as closed lactone form in human blood/plasma [4]: 2.8% | increase of lactone share over the parent compound ([4]; human, oral administration, versus CPT or 9NC): sevenfold | toxicity ([5]; mice): exceptional lack of toxicity, even at enormous doses in mice | antitumor activity against xenografts of human tumors ([5]; nude mice): exhibits antitumor activity against human tumor xenografts | Growth % [6]: 31 ± 2%

CC[C@@]1(OC(C)=O)C(=O)OCc2c1cc1n(c2=O)Cc2cc3ccccc3nc2-1 [CPT-acetate]
Growth % [6]: 92 ± 4%

CCC1(OC(=O)C2OC2C)C(=O)OCc2c1cc1n(c2=O)Cc2cc3ccccc3nc2-1 (stereo not drawn) [Compound IC, Camptothecin 20-O-2′, 3′-epoxy-butyrate]
tumor size [7]: stabilize the tumor size after a certain amount of time

CC=CC(=O)OC1(CC)C(=O)OCc2c1cc1n(c2=O)Cc2cc3ccccc3nc2-1 (stereo not drawn) [Compound IB, Camptothecin 20-O crotonate]
tumor size [7]: actually reducing the tumor size

CC[C@@]1(O)C(=O)OCc2c1cc1n(c2=O)Cc2cc3c([N+](=O)[O-])cccc3nc2-1 [Example 9NC, 9-nitrocamptothecin, reference compound]
potency relative to CPT against human tumor xenografts [8]: 2-3 times | complete tumor regressions [9]: 2/32 | drug present in the plasma in the closed lactone form [10]: 57% | % present as closed lactone form in human blood/plasma [4]: ~3% | drug present in plasma in the closed lactone form ([4]; oral administration to Phase I clinical trial patients, on average (FIGS. 4 and 5)): ~3% | complete tumor regressions ([5]; in mice): 32/32
